Reference: EP1247803A2, “Indolinone compounds suitable for modulation of protein kinases” (Sugen, Inc., priority 1996, dated 1998)

Molecular target: T1, FLK-1 receptor (Mus musculus, UniProt P35918)
T1 construct: expressed in transfected cells; host or cells: NIH3T3 C7#3
Assay: FLK-1 ELISA (kinase activity of the FLK-1 receptor in FLK-1/NIH3T3 cells, VEGF stimulated)
Type: cell-based
Parameters: concentration or dose not given beside the values
Outline: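 FLK-1-expressing NIH3T3 C7#3 cells, starved overnight in 0.1% FBS medium, were treated with compounds at a 1:200 final dilution (0.5% DMSO) for 2 h at 37 °C, with VEGF stimulation. FLK-1 kinase activity was read by ELISA on anti-rabbit IgG plates using affinity-purified anti-FLK-1 antiserum.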

T1 sequence (P35918 20-1345): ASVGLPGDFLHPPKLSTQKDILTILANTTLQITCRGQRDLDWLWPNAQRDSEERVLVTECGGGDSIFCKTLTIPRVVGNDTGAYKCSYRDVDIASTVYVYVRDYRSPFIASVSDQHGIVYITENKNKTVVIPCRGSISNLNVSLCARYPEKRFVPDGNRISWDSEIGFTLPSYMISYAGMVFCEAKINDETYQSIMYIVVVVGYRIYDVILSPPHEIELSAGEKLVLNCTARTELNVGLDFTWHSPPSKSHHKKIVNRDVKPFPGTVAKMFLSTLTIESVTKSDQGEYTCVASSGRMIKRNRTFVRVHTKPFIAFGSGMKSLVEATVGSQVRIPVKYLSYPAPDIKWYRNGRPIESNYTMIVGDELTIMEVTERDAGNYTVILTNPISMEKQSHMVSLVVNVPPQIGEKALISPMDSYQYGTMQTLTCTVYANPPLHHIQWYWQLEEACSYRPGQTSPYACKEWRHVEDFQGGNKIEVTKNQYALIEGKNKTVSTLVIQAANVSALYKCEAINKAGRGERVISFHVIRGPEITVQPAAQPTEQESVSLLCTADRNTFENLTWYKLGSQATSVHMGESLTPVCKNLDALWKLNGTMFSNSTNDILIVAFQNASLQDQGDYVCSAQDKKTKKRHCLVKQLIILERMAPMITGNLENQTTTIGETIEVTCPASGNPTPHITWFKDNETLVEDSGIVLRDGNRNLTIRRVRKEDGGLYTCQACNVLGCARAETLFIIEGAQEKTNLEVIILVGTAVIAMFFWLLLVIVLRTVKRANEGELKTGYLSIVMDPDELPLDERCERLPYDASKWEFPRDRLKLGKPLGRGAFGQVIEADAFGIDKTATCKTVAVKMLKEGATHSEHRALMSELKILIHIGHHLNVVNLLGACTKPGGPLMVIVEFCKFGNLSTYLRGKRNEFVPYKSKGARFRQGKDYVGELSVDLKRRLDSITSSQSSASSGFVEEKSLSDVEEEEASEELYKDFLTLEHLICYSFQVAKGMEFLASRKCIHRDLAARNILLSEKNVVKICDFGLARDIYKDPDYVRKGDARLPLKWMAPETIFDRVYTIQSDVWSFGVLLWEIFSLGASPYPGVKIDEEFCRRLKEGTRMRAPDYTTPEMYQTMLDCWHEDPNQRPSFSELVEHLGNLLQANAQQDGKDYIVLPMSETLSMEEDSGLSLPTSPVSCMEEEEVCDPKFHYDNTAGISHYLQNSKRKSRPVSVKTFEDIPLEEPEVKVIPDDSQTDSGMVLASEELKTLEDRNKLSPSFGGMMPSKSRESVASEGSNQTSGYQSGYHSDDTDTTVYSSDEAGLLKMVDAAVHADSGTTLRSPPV

Point of comparison: `CCc1cc(CC)c(C=C2C(=O)Nc3ccc(I)cc32)[nH]1` [10727/B03], “Fik Kinase %Inhibition” value -13.4%. Against it:
- O=C1Nc2c(Br)cc(Br)cc2C1=Cc1c[nH]c2ccccc12 [10717/A06] — higher, -10.8%
- Cn1cccc1C=C1C(=O)Nc2ccc(CCCl)cc21 [10717/G04] — higher, 0.8%
- O=C1Nc2ccc(CCCl)cc2C1=Cc1ccc(F)cc1 [10717/G05] — higher, 5.3%
- O=C1Nc2ccc(CCCl)cc2C1=Cc1c[nH]c2ccccc12 [10717/G06] — higher, 4.3%
- Cc1ccc(C=C2C(=O)Nc3ccc(CCCl)cc32)s1 [10717/G07] — lower, -17.0%
- O=C1Nc2ccc(CCCl)cc2C1=Cc1ccc(Br)cc1 [10717/G08] — higher, 1.9%
- O=C1Nc2ccc(CCCl)cc2C1=Cc1ccc[nH]1 [10717/G09] — lower, -29.7%
- COc1cccc(O)c1C=C1C(=O)Nc2ccc(CCCl)cc21 [10717/G10] — higher, 4.8%
- Cc1c(Br)ccc2c1C(=C1C(=O)Nc3ccc(F)cc31)C(=O)N2 [10726/C08] — higher, 3.4%
- Cc1c(Br)ccc2c1C(=C1C(=O)Nc3ccccc31)C(=O)N2 [10726/C09] — higher, 12.9%
- CCc1ccc(C=C2C(=O)Nc3ccc(Br)c(C)c32)s1 [10726/C10] — higher, 5.5%
- COc1ccc(C=C2C(=O)Nc3ccc(Br)c(C)c32)cc1 [10726/C11] — lower, -32.2%
- CCOC(=O)c1[nH]c(C=C2C(=O)Nc3ccc(S(=O)(=O)NC)cc32)c(C(=O)OC)c1C [10726/D03] — higher, 21.6%
- CNS(=O)(=O)c1ccc2c(c1)C(=Cc1cc(C)c(O)c(C(C)(C)C)c1)C(=O)N2 [10726/D04] — higher, 7.8%
- CNS(=O)(=O)c1ccc2c(c1)C(=Cc1ccc(Br)o1)C(=O)N2 [10726/D05] — higher, 8.2%
- CNS(=O)(=O)c1ccc2c(c1)C(=Cc1cn(C)cc1C)C(=O)N2 [10726/D06] — higher, 16.3%
- CNS(=O)(=O)c1ccc2c(c1)C(=Cc1cc(O)c3c(c1O)CCCC3)C(=O)N2 [10726/D07] — lower, -26.9%
- CNS(=O)(=O)c1ccc2c(c1)C(=C1C(=O)Nc3ccc(F)cc31)C(=O)N2 [10726/D08] — higher, 12.1%
- CNS(=O)(=O)c1ccc2c(c1)C(=C1C(=O)Nc3ccccc31)C(=O)N2 [10726/D09] — higher, 14.4%
- CCc1ccc(C=C2C(=O)Nc3ccc(S(=O)(=O)NC)cc32)s1 [10726/D10] — higher, 14.7%
- CNS(=O)(=O)c1ccc2c(c1)C(=Cc1ccc(OC)cc1)C(=O)N2 [10726/D11] — higher, 10.5%
- CCOC(=O)c1[nH]c(C=C2C(=O)Nc3ccc(S(=O)(=O)Nc4ccc(C(F)(F)F)cc4)cc32)c(C(=O)OC)c1C [10726/E03] — higher, -5.5%
- Cc1cc(C=C2C(=O)Nc3ccc(S(=O)(=O)Nc4ccc(C(F)(F)F)cc4)cc32)cc(C(C)(C)C)c1O [10726/E04] — higher, 8.1%
- O=C1Nc2ccc(S(=O)(=O)Nc3ccc(C(F)(F)F)cc3)cc2C1=Cc1ccc(Br)o1 [10726/E05] — higher, 8.1%
- Cc1cn(C)cc1C=C1C(=O)Nc2ccc(S(=O)(=O)Nc3ccc(C(F)(F)F)cc3)cc21 [10726/E06] — higher, 6.2%
- O=C1Nc2ccc(S(=O)(=O)Nc3ccc(C(F)(F)F)cc3)cc2C1=Cc1cc(O)c2c(c1O)CCCC2 [10726/E07] — lower, -40.0%
- O=C1Nc2ccc(F)cc2C1=C1C(=O)Nc2ccc(S(=O)(=O)Nc3ccc(C(F)(F)F)cc3)cc21 [10726/E08] — higher, 4.1%
- O=C1Nc2ccccc2C1=C1C(=O)Nc2ccc(S(=O)(=O)Nc3ccc(C(F)(F)F)cc3)cc21 [10726/E09] — higher, 9.9%
- CCc1ccc(C=C2C(=O)Nc3ccc(S(=O)(=O)Nc4ccc(C(F)(F)F)cc4)cc32)s1 [10726/E10] — higher, 16.5%
- COc1ccc(C=C2C(=O)Nc3ccc(S(=O)(=O)Nc4ccc(C(F)(F)F)cc4)cc32)cc1 [10726/E11] — higher, 16.2%
- CCOC(=O)c1[nH]c(C=C2C(=O)Nc3ccc(S(=O)(=O)N4CCOCC4)cc32)c(C(=O)OC)c1C [10726/F03] — higher, 8.3%
- Cc1cc(C=C2C(=O)Nc3ccc(S(=O)(=O)N4CCOCC4)cc32)cc(C(C)(C)C)c1O [10726/F04] — higher, 31.5%
- O=C1Nc2ccc(S(=O)(=O)N3CCOCC3)cc2C1=Cc1ccc(Br)o1 [10726/F05] — higher, 8.9%
- Cc1cn(C)cc1C=C1C(=O)Nc2ccc(S(=O)(=O)N3CCOCC3)cc21 [10726/F06] — higher, 17.7%
- O=C1Nc2ccc(S(=O)(=O)N3CCOCC3)cc2C1=Cc1cc(O)c2c(c1O)CCCC2 [10726/F07] — higher, 9.6%
- O=C1Nc2ccc(F)cc2C1=C1C(=O)Nc2ccc(S(=O)(=O)N3CCOCC3)cc21 [10726/F08] — higher, 15.3%
- O=C1Nc2ccccc2C1=C1C(=O)Nc2ccc(S(=O)(=O)N3CCOCC3)cc21 [10726/F09] — higher, 9.6%
- CCc1ccc(C=C2C(=O)Nc3ccc(S(=O)(=O)N4CCOCC4)cc32)s1 [10726/F10] — higher, 7.0%
- COc1ccc(C=C2C(=O)Nc3ccc(S(=O)(=O)N4CCOCC4)cc32)cc1 [10726/F11] — higher, 13.6%
- CCOC(=O)c1[nH]c(C=C2C(=O)Nc3ccc(CCCl)cc32)c(C(=O)OC)c1C [10726/G03] — higher, 11.3%
- Cc1cc(C=C2C(=O)Nc3ccc(CCCl)cc32)cc(C(C)(C)C)c1O [10726/G04] — higher, 9.7%
- O=C1Nc2ccc(CCCl)cc2C1=Cc1ccc(Br)o1 [10726/G05] — higher, 14.9%
- Cc1cn(C)cc1C=C1C(=O)Nc2ccc(CCCl)cc21 [10726/G06] — higher, 7.0%
- O=C1Nc2ccc(CCCl)cc2C1=Cc1cc(O)c2c(c1O)CCCC2 [10726/G07] — lower, -13.7%
- O=C1Nc2ccc(F)cc2C1=C1C(=O)Nc2ccc(CCCl)cc21 [10726/G08] — higher, 2.9%
- O=C1Nc2ccccc2C1=C1C(=O)Nc2ccc(CCCl)cc21 [10726/G09] — higher, 3.6%
- CCc1ccc(C=C2C(=O)Nc3ccc(CCCl)cc32)s1 [10726/G10] — higher, 10.5%
- COc1ccc(C=C2C(=O)Nc3ccc(CCCl)cc32)cc1 [10726/G11] — higher, 9.1%
- CCN(CC)c1ccc(C=C2C(=O)Nc3c(Br)cc(Br)cc32)cc1 [10727/A02] — higher, -1.3%
- CCc1cc(CC)c(C=C2C(=O)Nc3c(Br)cc(Br)cc32)[nH]1 [10727/A03] — higher, 6.3%
- O=C1Nc2c(Br)cc(Br)cc2C1=Cc1cc(Cl)cc(Br)c1O [10727/A04] — higher, -4.6%
- O=C1Nc2c(Br)cc(Br)cc2C1=Cc1ccccc1Sc1ccc(Cl)cc1 [10727/A05] — higher, 4.2%
- O=C1Nc2c(Br)cc(Br)cc2C1=Cc1cc2c(cc1Cl)OCO2 [10727/A06] — lower, -17.1%
- O=C1Nc2c(Br)cc(Br)cc2C1=Cc1coc2ccccc2c1=O [10727/A07] — higher, -10.7%
- N#Cc1cccc(C=C2C(=O)Nc3c(Br)cc(Br)cc32)c1 [10727/A08] — higher, -0.6%
- N#Cc1ccc(C=C2C(=O)Nc3c(Br)cc(Br)cc32)cc1 [10727/A09] — lower, -16.8%
- O=C1Nc2c(Br)cc(Br)cc2C1=Cc1cc(O)ccc1O [10727/A10] — higher, -6.4%
- COc1cccc(C=C2C(=O)Nc3c(Br)cc(Br)cc32)c1OC [10727/A11] — higher, 7.4%
- CCN(CC)c1ccc(C=C2C(=O)Nc3ccc(I)cc32)cc1 [10727/B02] — higher, 2.4%
- O=C1Nc2ccc(I)cc2C1=Cc1cc(Cl)cc(Br)c1O [10727/B04] — higher, 46.0%
- O=C1Nc2ccc(I)cc2C1=Cc1ccccc1Sc1ccc(Cl)cc1 [10727/B05] — higher, 10.5%
- O=C1Nc2ccc(I)cc2C1=Cc1cc2c(cc1Cl)OCO2 [10727/B06] — higher, -3.9%
- O=C1Nc2ccc(I)cc2C1=Cc1coc2ccccc2c1=O [10727/B07] — higher, 8.4%
- N#Cc1cccc(C=C2C(=O)Nc3ccc(I)cc32)c1 [10727/B08] — higher, 4.0%
- N#Cc1ccc(C=C2C(=O)Nc3ccc(I)cc32)cc1 [10727/B09] — higher, 6.7%
- O=C1Nc2ccc(I)cc2C1=Cc1cc(O)ccc1O [10727/B10] — higher, 3.9%
- COc1cccc(C=C2C(=O)Nc3ccc(I)cc32)c1OC [10727/B11] — higher, 16.8%
- CCN(CC)c1ccc(C=C2C(=O)Nc3ccc(Br)c(C)c32)cc1 [10727/C02] — higher, -2.0%
- CCc1cc(CC)c(C=C2C(=O)Nc3ccc(Br)c(C)c32)[nH]1 [10727/C03] — higher, -3.2%
- Cc1c(Br)ccc2c1C(=Cc1cc(Cl)cc(Br)c1O)C(=O)N2 [10727/C04] — higher, 0.2%
- Cc1c(Br)ccc2c1C(=Cc1ccccc1Sc1ccc(Cl)cc1)C(=O)N2 [10727/C05] — higher, 13.7%
- Cc1c(Br)ccc2c1C(=Cc1cc3c(cc1Cl)OCO3)C(=O)N2 [10727/C06] — higher, 5.2%
- Cc1c(Br)ccc2c1C(=Cc1coc3ccccc3c1=O)C(=O)N2 [10727/C07] — higher, 15.9%
- Cc1c(Br)ccc2c1C(=Cc1cccc(C#N)c1)C(=O)N2 [10727/C08] — higher, 4.9%
- Cc1c(Br)ccc2c1C(=Cc1ccc(C#N)cc1)C(=O)N2 [10727/C09] — lower, -13.5%
- Cc1c(Br)ccc2c1C(=Cc1cc(O)ccc1O)C(=O)N2 [10727/C10] — lower, -35.3%
- COc1cccc(C=C2C(=O)Nc3ccc(Br)c(C)c32)c1OC [10727/C11] — lower, -25.6%
- CCN(CC)c1ccc(C=C2C(=O)Nc3ccc(S(=O)(=O)NC)cc32)cc1 [10727/D02] — higher, 3.2%
- CCc1cc(CC)c(C=C2C(=O)Nc3ccc(S(=O)(=O)NC)cc32)[nH]1 [10727/D03] — higher, 3.1%
